Like-named read-outs stand apart in the source and are kept apart here.
Assays:
procollagen type(I) = experiment: Stimulation of collagen biosynthesis (procollagen type(I) ELISA); format: cell-based; conditions: Fibroblasts, 10 μM in serum-free medium, 24 hours, non-treated group taken as 100; for activity at 10 µM: Fibroblast
Protocol: The hydroxybenzamide compounds according to Examples 18 were determined for their effects of stimulating collagen biosynthesis, and the results were compared to the effects obtained from resveratrol and tocopherol.
Fibroblasts were seeded into a 24-well microtiter plate in a cell count of 10^5 cells per well and cultured to a growth level of 90%. The cultured product was further cultured in a serum-free DMEM medium for 24 hours. Next, the cultured product was treated with the hydroxybenzamide compounds according to Examples 1˜8, resveratrol and tocopherol, dissolved in a serum-free medium at a concentration of 10 μM, and then was cultured in a CO2 incubator for 24 hours. After decanting the supernatant, procollagen was determined by using a procollagen type(I) ELISA kit. The results are shown in the following Table 2, wherein the biosynthesis activity is expressed based on the biosynthesis activity of non-treated group, taken as 100.

collagenase = experiment: Effect of inhibiting collagenase expression; format: cell-based; conditions: Human fibroblasts, 10˜4M in serum-free DMEM, non-treated group taken as 100; for activity at 100 µM: Fibroblast
Protocol: The hydroxybenzamide compounds according to Examples 1˜8 were determined for their effects of inhibiting collagenase expression, and the results were compared to the effects obtained from resveratrol and tocopherol.
Human fibroblasts were introduced into a 96-well microtiter plate containing a DMEM (Dulbecco's Modified Eagle's Media) with 2.5% fetal bovine serum (FBS) in a cell count of 5,000 cells per well and cultured to a growth level of 90%. Then, the cultured product was further cultured in a serum-free DMEM medium for 24 hours. Next, the cultured product was treated with the hydroxybenzamide compounds according to Examples 18, resveratrol and tocopherol, dissolved in a serum-free DMEM medium at a concentration of 10˜4M, and then the cell culture was collected. The cell culture was evaluated for the production of collagenase by using a commercially available collagenase measuring system (Amersham Pharmacia, USA). First, the cell culture was introduced into a 96-well plate coated uniformly with primary collagenase antibodies, and then an antigen-antibody reaction was carried out in an incubator for 3 hours. After 3 hours, secondary collagenase antibodies, to which chromophores were bound, were introduced into the 96-well plate, and the reaction was further carried out for 15 minutes. After 15 minutes, a color developer was added thereto to develop a color at room temperature for 15 minutes, and 1M sulfuric acid was further added thereto to quench the reaction (color development). […] The yellow-colored 96-well plate was measured for absorptivity at 405 nm by using an absorption spectrometer, and a degree of collagenase synthesis was calculated according to the following Mathematical Formula 1. At this time, absorptivity of the cell culture in a non-treated group was used as a control.
Collagenase expression (%)=Absorptivity of the group treated with the corresponding sample/Absorptivity of the control×100 [Mathematical Formula 1]
The collagenase expression inhibiting activity was expressed based on the collagenase synthesis activity of the non-treated group, taken as 100.

[1] = tested on: Human keratinocyte HaCaT cell lines; experiment: Anti-oxidative effect using HaCaT model (lipid peroxidation assay kit); format: cell-based; conditions: for activity at 100 µM: Homo sapiens, read-out: Lipid peroxidation (%)
Protocol: The hydroxybenzamide compounds prepared in Examples 1-8 were determined for their anti-oxidative effects.
Human keratinocyte HaCaT cell lines were pipetted into 60 mm dishes in a cell count of 1.0×10^6 cells per dish, and were cultured by using a DMEM (FBS 10%) medium containing penicillin/streptomycin added thereto under the conditions of 37° C./5% CO2 for 1 day. Then, the cultured product was treated with each of the hydroxybenzamide compounds according to Examples 1˜8 in a concentration of 10˜4 mol. Also, the same cultured product was treated with the same concentration of tocopherol and resveratrol for 24 hours. In addition to the above, the cultured product was treated with t-BHT (t-butyl hydroperoxide) and cultured under the conditions of 37° C./5% CO2 for 4 hours to obtain cells. The cells were subjected to lysis by repeating freezing/thawing cycles. The following Test procedure was based on the method described in the assay kit used in this example.
In this example, Calbiochem Lipid peroxidation assay kit (Cat. No. 437634) was used as a test reagent, and lipid peroxidation was determined by using the mechanism of formation of stable compounds at 586 nm from the reaction between the above reagent and ester peroxides linked to long-chain unsaturated fatty acids, such as malondialdehyde (MDA) and 4-hydroxyalkenal (4-hydroxy-2(E)-nonenal, 4-HNE).

[2] = Thermal stability according to isothermal discoloration test; format: physicochemical; design: key: 1: no discoloration; 2: discoloration into a light yellow color; 3: discoloration into a dark yellow color; 4: discoloration into a dark brown color; conditions: 1000 pm in dimethylformaldehyde:ethanol:water=5:3:2, 40° C., naked eyes
Protocol: The hydroxybenzamide compounds according to Examples 18 were determined for their thermal stability as compared to resveratrol.
The test was performed by dissolving each of the hydroxybenzamide compounds according to Examples 1˜8 into a test solvent (dimethylformaldehyde:ethanol:water=5:3:2) in a concentration of 1000 pm, and by allowing the test samples to be left in an isothermal chamber at 40° C. for a test period of 30, 60 and 90 days. Then, the test samples were observed by the naked eyes to determine discoloration degrees.
Discoloration of the samples was graded into Grade 1 Grade 4 as follows:
2: discoloration into a light yellow color
3: discoloration into a dark yellow color
4: discoloration into a dark brown color

[3] = HaCaT cells, sample at 10˜4 mol for 24 hours, then t-BHT 4 hours, non-treated group = 100

| Molecule | activity at 10 µM (procollagen type(I)) [%] | activity at 100 µM (collagenase) [%] | activity at 100 µM [1, 3] [%] | Discoloration after 30 days [2] | Discoloration after 60 days [2] | Discoloration After 90 days [2] | activity at 100 µM ([1]; HaCaT, 24 h) [%] | Collagen biosynthesis activity (%) (procollagen type(I)) | Collagenase expression (%) (collagenase) | Lipid peroxidation (%) [1, 3] [%] |
| --- | --- | --- | --- | --- | --- | --- | --- | --- | --- | --- |
| O=C(Nc1ccc(O)cc1)c1cc(O)cc(O)c1 [Ex. 1, 3,5-dihydroxy-N-(4-hydroxyphenyl)benzamide] | 143 | 67 | 170 | 1 | 1 | 1 | – | – | – | – |
| O=C(Nc1ccccc1O)c1cc(O)cc(O)c1 [Ex. 2, 3,5-dihydroxy-N-(2-hydroxyphenyl)benzamide] | 121 | 69 | 180 | 1 | 1 | 1 | – | – | – | – |
| O=C(Nc1cccc(O)c1)c1cc(O)cc(O)c1 [Ex. 3, 3,5-dihydroxy-N-(3-hydroxyphenyl)benzamide] | 122 | 71 | 182 | 1 | 1 | 1 | – | – | – | – |
| COc1ccc(NC(=O)c2cc(O)cc(O)c2)cc1 [Ex. 4, 3,5-dihydroxy-N-(4-methoxyphenyl)benzamide] | 118 | 74 | 186 | 1 | 1 | 1 | – | – | – | – |
| COc1ccc(NC(=O)c2cc(O)cc(O)c2)cc1OC [Ex. 5, 3,5-dihydroxy-N-(3,4-dimethoxyphenyl)benzamide] | 115 | 72 | 176 | 1 | 1 | 1 | – | – | – | – |
| COc1cc(NC(=O)c2cc(O)cc(O)c2)cc(OC)c1 [Ex. 6, 3,5-dihydroxy-N-(3,5-dimethoxyphenyl)benzamide] | 116 | 71 | 172 | 1 | 1 | 1 | – | – | – | – |
| COc1cc(NC(=O)c2cc(O)cc(O)c2)cc(OC)c1OC [Ex. 7, 3,5-dihydroxy-N-(3,4,5-trimethoxyphenyl)benzamide] | 119 | 70 | 179 | 1 | 1 | 1 | – | – | – | – |
| COc1ccc(NC(=O)c2cc(O)cc(O)c2)cc1O [Ex. 8, 3,5-dihydroxy-N-(3-hydroxy-4-methoxyphenyl)benzamide] | 120 | 69 | 181 | 1 | 1 | 1 | – | – | – | – |
| Oc1ccc(C=Cc2cc(O)cc(O)c2)cc1 [Resveratrol, reference compound] | 111 | 81 | 178 | 2 | 3 | 4 | – | – | – | – |
| CC(C)(C)OO [t-BHT, t-butyl hydroperoxide, reference compound] | – | – | – | – | – | – | 320 | – | – | – |
| Tocopherol [reference compound] | – | – | – | – | – | – | – | 113 | 95 | 250 |

Source: US20080280989A1, “Hydroxybenzamide Derivatives, the Method For Preparing Thereof and the Cosmetic Composition Containing the Same” (priority 2005, published 2008)
